Laboratory results: patent US11040976B2, “Substrate selective inhibitors of insulin-degrading enzyme (IDE) and uses thereof” (President and Fellows of Harvard College, priority 2015, dated 2021)

What follows are compounds tested against T1, recombinant human IDE42-1019 (Homo sapiens, UniProt P14735) (assay: Protease assay with fluorogenic peptide substrate Mca-[…](Dnp)-OH). Settings: fluorogenic peptide Mca-RPPGFSAFK(Dnp)-OH; apparent IC50 for compounds with submaximal inhibition; read-out: IC50 (μM) Proteolysis.
T1 construct: recombinant human IDE42-1019 (R&D Systems); purchased R&D Systems
T1 sequence (P14735 42-1019): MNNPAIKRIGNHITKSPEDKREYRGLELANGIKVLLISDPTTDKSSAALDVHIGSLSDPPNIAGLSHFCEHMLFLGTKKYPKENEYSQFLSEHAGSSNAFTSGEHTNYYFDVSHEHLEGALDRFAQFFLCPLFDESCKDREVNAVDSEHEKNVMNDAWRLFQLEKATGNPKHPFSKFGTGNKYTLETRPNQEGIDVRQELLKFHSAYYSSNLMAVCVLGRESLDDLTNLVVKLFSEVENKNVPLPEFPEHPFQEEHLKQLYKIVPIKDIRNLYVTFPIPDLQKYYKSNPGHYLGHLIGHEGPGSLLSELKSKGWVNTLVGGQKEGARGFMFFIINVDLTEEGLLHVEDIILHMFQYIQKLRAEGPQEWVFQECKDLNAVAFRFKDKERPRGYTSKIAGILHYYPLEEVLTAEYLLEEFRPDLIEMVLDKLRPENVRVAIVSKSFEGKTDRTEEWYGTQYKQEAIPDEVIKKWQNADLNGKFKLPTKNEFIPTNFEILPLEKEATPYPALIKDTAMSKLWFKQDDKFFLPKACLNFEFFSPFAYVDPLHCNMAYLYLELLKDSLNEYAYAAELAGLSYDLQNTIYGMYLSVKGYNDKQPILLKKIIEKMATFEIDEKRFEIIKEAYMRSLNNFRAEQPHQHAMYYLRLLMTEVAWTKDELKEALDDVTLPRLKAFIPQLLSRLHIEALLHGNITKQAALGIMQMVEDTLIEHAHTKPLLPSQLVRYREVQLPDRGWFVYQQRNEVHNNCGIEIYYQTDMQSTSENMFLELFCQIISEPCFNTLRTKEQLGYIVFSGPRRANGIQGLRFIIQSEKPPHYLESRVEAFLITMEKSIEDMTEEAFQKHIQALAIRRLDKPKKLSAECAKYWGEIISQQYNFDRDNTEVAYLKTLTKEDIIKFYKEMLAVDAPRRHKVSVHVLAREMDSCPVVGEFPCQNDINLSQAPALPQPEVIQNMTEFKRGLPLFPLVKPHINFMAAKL
Format: biochemical

Structure (SMILES) | IC50
Cc1cccc(-c2ccc([C@@H]3[C@@H](CO)N4CCCCN(C(=O)c5cccnc5)C[C@@H]34)cc2)c1 [compound 296] | > 100 µM
Cc1cccc(-c2ccc([C@@H]3[C@H]4CN(C(=O)c5ccncc5)CCCCN4[C@H]3CO)cc2)c1 [compound 316] | > 10 µM
COc1cccc(-c2ccc([C@@H]3[C@@H](CO)N4CCCCN(C(=O)Nc5ccncc5)C[C@@H]34)cc2)c1 [compound 433] | > 100 µM
Cc1cccc(-c2ccc([C@@H]3[C@@H](CO)N4CCCCN(C(=O)c5cccnc5)C[C@@H]34)cc2)c1 [compound 443] | > 100 µM
O=C(c1ccccn1)N1CC(=O)N2[C@@H](CO)[C@@H](c3ccc(C#Cc4ccccc4)cc3)[C@@H]2C1 [compound 479] | < 10 µM
Cc1ccccc1-c1ccc([C@H]2[C@H](CO)N3C(=O)CN(C(=O)c4cccnc4)C[C@@H]23)cc1 [compound 491] | > 10 µM
OC[C@H]1[C@@H](c2ccc(C#Cc3ccccc3)cc2)[C@@H]2CN(Cc3cncnc3)CCCCN12 [compound 525] | < 10 µM
COC(=O)N1CCCCN2[C@H](CO)[C@@H](c3ccc(-c4cccc(C)c4)cc3)[C@@H]2C1 [compound 559] | > 100 µM
CCCCC(=O)N1CC(=O)N2[C@@H](CO)[C@@H](c3ccc(C#Cc4cccc(OC)c4)cc3)[C@@H]2C1 [compound 564] | > 100 µM
COc1ccccc1-c1ccc([C@H]2[C@@H](CO)N3CCCCN(C(=O)c4ccncc4)C[C@H]23)cc1 [compound 586] | 7 µM

Second part, the compound after the results:

IC50 | Structure (SMILES)
0.6 µM | Cc1cccc(-c2ccc([C@@H]3[C@@H](CO)N4CCCCN(S(=O)(=O)c5cn(C)cn5)C[C@@H]34)cc2)c1 [compound 342]
7 µM | Cc1cccc(-c2ccc([C@@H]3[C@@H](CO)N4C(=O)CN(C(=O)Cc5ccccn5)C[C@@H]34)cc2)c1 [compound 348]
2.5 µM | COc1ccccc1-c1ccc([C@H]2[C@@H](CO)N3CCCCN(C(=O)NC4CCCC4)C[C@H]23)cc1 [compound 439]
2.5 µM | Cc1cccc(-c2ccc([C@@H]3[C@@H](CO)N4CCCCN(S(=O)(=O)c5cccc(C)c5)C[C@@H]34)cc2)c1 [compound 496]
0.5 µM | Cc1ccccc1-c1ccc([C@H]2[C@@H](CO)N3C(=O)CN(C(=O)Nc4ccc(F)cc4)C[C@H]23)cc1 [compound 510]
7 µM | Cc1ccccc1-c1ccc([C@H]2[C@H](CO)N3C(=O)CN(C(=O)Nc4cccc(F)c4)C[C@@H]23)cc1 [compound 534]
2.5 µM | Cc1ccccc1-c1ccc([C@@H]2[C@@H](CO)N3C(=O)CN(S(C)(=O)=O)C[C@@H]23)cc1 [compound 585]

Same assay, conditions: fluorogenic peptide Mca-RPPGFSAFK(Dnp)-OH; plateau at high inhibitor concentration; read-out: Imax (%) Proteolysis (inhibition maximum)

Structure (SMILES) | Emax
O=C(c1ccccn1)N1CC(=O)N2[C@@H](CO)[C@@H](c3ccc(C#Cc4ccccc4)cc3)[C@@H]2C1 [compound 479] | ~100%
Cc1ccccc1-c1ccc([C@H]2[C@H](CO)N3C(=O)CN(C(=O)c4cccnc4)C[C@@H]23)cc1 [compound 491] | 70%
OC[C@H]1[C@@H](c2ccc(C#Cc3ccccc3)cc2)[C@@H]2CN(Cc3cncnc3)CCCCN12 [compound 525] | ~100%
COc1ccccc1-c1ccc([C@H]2[C@@H](CO)N3CCCCN(C(=O)c4ccncc4)C[C@H]23)cc1 [compound 586] | 70%

The remaining lines, values ahead:

Emax | Structure (SMILES)
50% | Cc1cccc(-c2ccc([C@@H]3[C@@H](CO)N4CCCCN(S(=O)(=O)c5cn(C)cn5)C[C@@H]34)cc2)c1 [compound 342]
40% | Cc1cccc(-c2ccc([C@@H]3[C@@H](CO)N4C(=O)CN(C(=O)Cc5ccccn5)C[C@@H]34)cc2)c1 [compound 348]
50% | COc1ccccc1-c1ccc([C@H]2[C@@H](CO)N3CCCCN(C(=O)NC4CCCC4)C[C@H]23)cc1 [compound 439]
30% | Cc1cccc(-c2ccc([C@@H]3[C@@H](CO)N4CCCCN(S(=O)(=O)c5cccc(C)c5)C[C@@H]34)cc2)c1 [compound 496]
30% | Cc1ccccc1-c1ccc([C@H]2[C@@H](CO)N3C(=O)CN(C(=O)Nc4ccc(F)cc4)C[C@H]23)cc1 [compound 510]
70% | Cc1ccccc1-c1ccc([C@H]2[C@H](CO)N3C(=O)CN(C(=O)Nc4cccc(F)c4)C[C@@H]23)cc1 [compound 534]
40% | Cc1ccccc1-c1ccc([C@@H]2[C@@H](CO)N3C(=O)CN(S(C)(=O)=O)C[C@@H]23)cc1 [compound 585]

These compounds were tested against T2, Human N-His6-IDE42-1019 (E. coli expressed) (Homo sapiens, UniProt P14735) (assay: Fluorescence anisotropy high-throughput screening assay (displacement of probe FL-6b)). Settings: final compound concentration 20 μM (6bK control 1 μM); values without asterisk.
T2 construct: Human N-His6-IDE42-1019 (E. coli expressed); made in house; host or cells: E. coli (Rosetta 2 (DE3) pLysS, plasmid pTrcHis-A)
T2 sequence (P14735 42-1019): T1 sequence (P14735 42-1019)
Format: binding
Method: The fluorescence anisotropy screening method and probe FL-6b are described in PCT application PCT/US2014/064322, incorporated herein by reference.
Human N-His6-IDE42-1019 (E. coli expressed) was mixed with fluorescein-labeled macrocycle FL-6b:
[drawing 802] in 50 mM Tris buffer pH 8.0, with 1 M NaCl, at 25° C. Optimum signal was obtained using a mixture of […] probe FL-6b and 0.5 μM IDE. The “diversity-oriented (DOS) synthesis informer set” compound plates were pinned onto 384-well plates containing the enzyme-probe mixture (50 μL/well). The azetidine screen was pre-printed on 384-well plates and the enzyme-probe mixture was added (50 μL/well). The final compound concentration was 20 μM. IDE inhibitor 6bK was used as a positive control at a final concentration of 1 μM. After 30 minutes of equilibration, the increase in fluorescence anisotropy was recorded using an EnVision spectrophotometer (excitation 492 nm, emission 523 nm). The fluorescence anisotropy was independently measured twice for each screened compound. The Z-scores for each pair of measurements are plotted in FIG. 1A (DOS informer set) and FIG. 1B (azetidines), and average Z-scores are listed for exemplary compounds in Table E1.
Z-scores were calculated based on the raw anisotropy measured for each well according to Eq. 1, wherein x is the raw anisotropy value of the well, μ is the mean of the anisotropy of the negative control wells (DMSO) for the plate, and σ is the standard deviation in anisotropy of the negative control wells (DMSO) for the plate.

Structure (SMILES) | Average Z-score (Fluorescence anisotropy)
Cc1cccc(-c2ccc([C@@H]3[C@@H](CO)N4CCCCN(C(=O)c5cccnc5)C[C@@H]34)cc2)c1 [compound 296] | −3.25
Cc1cccc(-c2ccc([C@@H]3[C@H]4CN(C(=O)c5ccncc5)CCCCN4[C@H]3CO)cc2)c1 [compound 316] | −16.96
COc1cccc(-c2ccc([C@@H]3[C@@H](CO)N4CCCCN(C(=O)Nc5ccncc5)C[C@@H]34)cc2)c1 [compound 433] | −2.37
Cc1cccc(-c2ccc([C@@H]3[C@@H](CO)N4CCCCN(C(=O)c5cccnc5)C[C@@H]34)cc2)c1 [compound 443] | −3.13
O=C(c1ccccn1)N1CC(=O)N2[C@@H](CO)[C@@H](c3ccc(C#Cc4ccccc4)cc3)[C@@H]2C1 [compound 479] | −19.91
Cc1ccccc1-c1ccc([C@H]2[C@H](CO)N3C(=O)CN(C(=O)c4cccnc4)C[C@@H]23)cc1 [compound 491] | −12.38
OC[C@H]1[C@@H](c2ccc(C#Cc3ccccc3)cc2)[C@@H]2CN(Cc3cncnc3)CCCCN12 [compound 525] | −16.2
COC(=O)N1CCCCN2[C@H](CO)[C@@H](c3ccc(-c4cccc(C)c4)cc3)[C@@H]2C1 [compound 559] | −5.28
CCCCC(=O)N1CC(=O)N2[C@@H](CO)[C@@H](c3ccc(C#Cc4cccc(OC)c4)cc3)[C@@H]2C1 [compound 564] | −1.33
COc1ccccc1-c1ccc([C@H]2[C@@H](CO)N3CCCCN(C(=O)c4ccncc4)C[C@H]23)cc1 [compound 586] | −17.17

Other lines, results leading:

Average Z-score (Fluorescence anisotropy) | Structure (SMILES)
−17.53 | Cc1cccc(-c2ccc([C@@H]3[C@@H](CO)N4CCCCN(S(=O)(=O)c5cn(C)cn5)C[C@@H]34)cc2)c1 [compound 342]
−11.8 | Cc1cccc(-c2ccc([C@@H]3[C@@H](CO)N4C(=O)CN(C(=O)Cc5ccccn5)C[C@@H]34)cc2)c1 [compound 348]
−19.08 | COc1ccccc1-c1ccc([C@H]2[C@@H](CO)N3CCCCN(C(=O)NC4CCCC4)C[C@H]23)cc1 [compound 439]
−9.77 | Cc1cccc(-c2ccc([C@@H]3[C@@H](CO)N4CCCCN(S(=O)(=O)c5cccc(C)c5)C[C@@H]34)cc2)c1 [compound 496]
−21.34 | Cc1ccccc1-c1ccc([C@H]2[C@@H](CO)N3C(=O)CN(C(=O)Nc4ccc(F)cc4)C[C@H]23)cc1 [compound 510]
−3.03 | Cc1ccccc1-c1ccc([C@H]2[C@H](CO)N3C(=O)CN(C(=O)Nc4cccc(F)c4)C[C@@H]23)cc1 [compound 534]

Same assay, conditions: values marked *: from the screen using the diversity-oriented synthesis (DOS) informer set of plates; 20 μM

Average Z-score (Fluorescence anisotropy) | Structure (SMILES)
−12.65* | Cc1ccccc1-c1ccc([C@@H]2[C@@H](CO)N3C(=O)CN(S(C)(=O)=O)C[C@@H]23)cc1 [compound 585]
